Laboratory results published in patent US8338624B2, “Isoflavone derivatives and uses thereof” (Yeda Research and Development Co., Ltd., priority 2007, dated 2012).

Key:
[1] = system: 320DM human colon cancer cells; experiment: DNA synthesis by [3H]-thymidine incorporation, 320DM cells; assay type: cell-based
Experimental: Cells were cultured in MEM supplemented with 10% FCS and antibiotics. Cells were grown to subconfluence and then treated with various hormones or agents as described by Somjen et al. (Somjen et al., 1998). The cells were characterized in terms of expression of mRNAs for estrogen […] by real time PCR, and the results are summarized in Table 1. N87, 320DM and H295R cells expressed mRNAs for both ERs. The ratio of ERα to ERβ was 1:8.5, 1:30 and 1:1.8 in N87, 320DM and H295R cells, respectively. Ovarian A2780 and prostate C4-24 cells expressed mainly mRNA for ERβ, and the ratio of ERβ to ERα was 300:1 and 70:1, respectively. MLS ovarian cells expressed mRNA only for ERβ. The ratio of ERα to ERβ in T47D cells has been reported to be 9:1.
[^3H]-Thymidine incorporation into DNA was used for the assessment of the various effects (proliferative or inhibitory) of various isoflavones, isoflavone derivatives and known cytotoxic drugs in the above-mentioned cells. Cells were grown until subconfluence using conditions described in Somjen et al. […] At the end of incubation, [^3H]-thymidine was added for two hours. Cells were then treated with 10% ice-cold trichloroacetic (TCA) for 5 min and washed twice with 5% TCA and then with cold ethanol. The cellular layer was dissolved in 0.3 ml of 0.3 M NaOH, aliquots were taken for counting radioactivity, and [^3H]-thymidine incorporation into DNA was calculated.

[2] = system: T-47D breast cancer cell line; experiment: NCI In Vitro Cell Line Screening, T-47D; assay type: cell-based; conditions: Homo sapiens, T47D, read-out: log10 GI50 (converted)
Experimental: An in vitro cell line screen for the t-boc derivative of daidzein (compound 9) was performed at the NCI/NIH US utilizing the In Vitro Cell Line Screening Project (IVCLSP) (National Cancer Institute, Developmental Therapeutics Program, Information Technology Branch, Rockville, Md., USA).
The operation of this screen utilized 60 different human tumor cell lines, representing leukemia, melanoma and cancers of the lung, colon, brain, ovary, breast, prostate, and kidney. […] Using these algorithms, it is possible to assign a putative mechanism of action to a test compound, or to determine that the response pattern is unique and not similar to that of any of the standard prototype compounds included in the NCI database.
To facilitate analysis of the data, three endpoints were calculated for each cell line: The GI50 value, which is the negative log10 of the concentration required to inhibit the growth of that cell line by 50% (relative to untreated cells); TGI, the negative log10 of minimum concentration that causes total growth inhibition; and LC50, which reflects the negative log10 concentration needed to kill 50% of the cells. A Mean Graph was used as a way of easily visualizing the results from all 60 cell lines at once. To generate this graph, the mean of GI50 values across all 60 cell lines was calculated. […]

CC(C)(C)OC(=O)NCCCCCCNC(=O)COc1ccc2c(=O)c(-c3ccc(O)cc3)coc2c1 [Compound 9]
incubation time at which plateau of inhibition of DNA synthesis was reached [1]: 72 h
DNA synthesis, ratio experimental/control (E/C) ([1]; 9 (0.3 μM) + E2 30 nM): 1.08 ± 0.16
DNA synthesis, ratio experimental/control (E/C) ([1]; 9 (0.3 μM) + E2 0.3 μM): 1.90 ± 0.05
anti-proliferative effect in presence of apoptosis inhibitor ([1]; 9 at 0.3 μM + Z-VADFK): the anti-proliferative effect of 9 was not discernible
DNA synthesis, ratio experimental/control (E/C) ([1]; 9 at 0.3 μM + Z-VADFK (25 μM)): 1.18 ± 0.14
suppression of the proliferative effect of estradiol ([1]; 9 at 0.3 μM + estradiol 300 nM): could not suppress its proliferative effect
DNA synthesis, ratio experimental/control (E/C) ([1]; 9 at 0.3 μM alone (Table 3)): 0.63 ± 0.11
DNA synthesis, ratio experimental/control (E/C) ([1]; 9 at 0.3 μM alone (Table 4)): 0.68 ± 0.14
DNA synthesis, ratio experimental/control (E/C) ([1]; 9 at 3 μM + Z-VADFK (25 μM)): 0.5 ± 0.11
DNA synthesis, ratio experimental/control (E/C) ([1]; 9 at 3 μM alone (Table 4)): 0.04 ± 0.22
effect on [3H]-thymidine incorporation into DNA ([1]; 15 to 6000 nM): dose dependent decreases
inhibition at 0.3 µM ([1]; Homo sapiens, 9 at 0.3 μM alone): 32%
inhibition at 3 µM ([1]; Homo sapiens, 9 at 3 μM alone): ≤ 96%
DNA synthesis, ratio experimental/control (E/C) ([1]; compound at 3 μM): 0.08 ± 0.01
DNA synthesis (% of control) ([1]; estradiol 30 nM + 0.3 μM compound 9): 100%
GI50 [2]: 1.35 µM
